For experiment [1], the target named is Ribosomal protein S6 kinase alpha-2 (Homo sapiens) (UniProt Q15349). Description: Inhibition of human recombinant RSK3 at 15 nM in presence of ATP by radiometric assay relative to control.
For experiment [2], the target named is Protein-tyrosine kinase 2-beta (Homo sapiens) (UniProt Q14289). Description: Inhibition of human recombinant PYK2 at 15 nM in presence of ATP by radiometric assay relative to control.
For experiment [3], the target named is Proto-oncogene tyrosine-protein kinase ROS (Homo sapiens) (UniProt P08922). In words: Inhibition of human recombinant ROS at 15 nM related to control ULK1.
In experiment [4] the target is Homeodomain-interacting protein kinase 2 (Homo sapiens) (UniProt Q9H2X6). In words: Inhibition of human recombinant HIPK2 at 15 nM in presence of ATP by radiometric assay relative to control.
In experiment [5] the target is Serine/threonine-protein kinase 25 (Homo sapiens) (UniProt O00506). Description: Inhibition of human recombinant YSK1 at 15 nM in presence of ATP by radiometric assay relative to control.
Experiment [6] deals with MAP kinase-interacting serine/threonine-protein kinase 2 (Homo sapiens, UniProt Q9HBH9). Description: Inhibition of human recombinant MNK2 at 15 nM related to control ULK1.
Experiment [7] has as its target Serine/threonine-protein kinase/endoribonuclease IRE1 (Homo sapiens) (UniProt O75460). In words: Inhibition of human recombinant IRE1 at 15 nM in presence of ATP by radiometric assay relative to control.
In experiment [8] the target is Serine/threonine-protein kinase 10 (Homo sapiens) (UniProt O94804). In words: Inhibition of human recombinant LOK at 40 nM related to control ULK1.
The target of experiment [9] is Focal adhesion kinase 1 (Homo sapiens) (UniProt Q05397). In words: Inhibition of human recombinant FAK at 500 nM in presence of ATP by radiometric assay relative to control.
The target in experiment [10] is T1, Serine/threonine-protein kinase TAO3 (Homo sapiens) (UniProt Q9H2K8).
T1 sequence (whole entry): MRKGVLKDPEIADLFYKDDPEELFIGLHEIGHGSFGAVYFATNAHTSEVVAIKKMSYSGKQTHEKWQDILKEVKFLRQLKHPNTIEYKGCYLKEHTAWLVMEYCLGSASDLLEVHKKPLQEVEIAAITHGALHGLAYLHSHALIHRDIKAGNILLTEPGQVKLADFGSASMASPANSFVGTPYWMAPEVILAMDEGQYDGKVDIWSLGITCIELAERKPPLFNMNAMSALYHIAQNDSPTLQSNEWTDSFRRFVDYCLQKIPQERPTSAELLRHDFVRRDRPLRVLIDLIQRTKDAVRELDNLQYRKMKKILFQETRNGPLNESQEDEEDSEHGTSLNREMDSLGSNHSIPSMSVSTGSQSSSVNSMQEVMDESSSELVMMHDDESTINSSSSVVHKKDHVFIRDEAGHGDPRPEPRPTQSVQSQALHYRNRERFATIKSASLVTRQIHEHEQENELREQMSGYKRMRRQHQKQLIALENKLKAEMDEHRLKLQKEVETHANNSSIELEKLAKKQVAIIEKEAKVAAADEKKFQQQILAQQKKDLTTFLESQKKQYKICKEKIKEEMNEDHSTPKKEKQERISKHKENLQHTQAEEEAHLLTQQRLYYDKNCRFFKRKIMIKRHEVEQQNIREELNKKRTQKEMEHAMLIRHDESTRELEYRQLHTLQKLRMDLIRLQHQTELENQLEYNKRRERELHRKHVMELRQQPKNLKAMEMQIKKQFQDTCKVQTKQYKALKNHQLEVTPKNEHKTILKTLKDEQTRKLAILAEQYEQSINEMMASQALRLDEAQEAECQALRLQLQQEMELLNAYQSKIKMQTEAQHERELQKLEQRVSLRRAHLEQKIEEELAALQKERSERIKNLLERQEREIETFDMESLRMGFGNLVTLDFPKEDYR
In words: Inhibition of human recombinant TAO3 at 500 nM related to control ULK1.

The target of experiment [11] is T2, Mitogen-activated protein kinase kinase kinase 5 (Homo sapiens) (UniProt Q99683).
T2 sequence (whole entry): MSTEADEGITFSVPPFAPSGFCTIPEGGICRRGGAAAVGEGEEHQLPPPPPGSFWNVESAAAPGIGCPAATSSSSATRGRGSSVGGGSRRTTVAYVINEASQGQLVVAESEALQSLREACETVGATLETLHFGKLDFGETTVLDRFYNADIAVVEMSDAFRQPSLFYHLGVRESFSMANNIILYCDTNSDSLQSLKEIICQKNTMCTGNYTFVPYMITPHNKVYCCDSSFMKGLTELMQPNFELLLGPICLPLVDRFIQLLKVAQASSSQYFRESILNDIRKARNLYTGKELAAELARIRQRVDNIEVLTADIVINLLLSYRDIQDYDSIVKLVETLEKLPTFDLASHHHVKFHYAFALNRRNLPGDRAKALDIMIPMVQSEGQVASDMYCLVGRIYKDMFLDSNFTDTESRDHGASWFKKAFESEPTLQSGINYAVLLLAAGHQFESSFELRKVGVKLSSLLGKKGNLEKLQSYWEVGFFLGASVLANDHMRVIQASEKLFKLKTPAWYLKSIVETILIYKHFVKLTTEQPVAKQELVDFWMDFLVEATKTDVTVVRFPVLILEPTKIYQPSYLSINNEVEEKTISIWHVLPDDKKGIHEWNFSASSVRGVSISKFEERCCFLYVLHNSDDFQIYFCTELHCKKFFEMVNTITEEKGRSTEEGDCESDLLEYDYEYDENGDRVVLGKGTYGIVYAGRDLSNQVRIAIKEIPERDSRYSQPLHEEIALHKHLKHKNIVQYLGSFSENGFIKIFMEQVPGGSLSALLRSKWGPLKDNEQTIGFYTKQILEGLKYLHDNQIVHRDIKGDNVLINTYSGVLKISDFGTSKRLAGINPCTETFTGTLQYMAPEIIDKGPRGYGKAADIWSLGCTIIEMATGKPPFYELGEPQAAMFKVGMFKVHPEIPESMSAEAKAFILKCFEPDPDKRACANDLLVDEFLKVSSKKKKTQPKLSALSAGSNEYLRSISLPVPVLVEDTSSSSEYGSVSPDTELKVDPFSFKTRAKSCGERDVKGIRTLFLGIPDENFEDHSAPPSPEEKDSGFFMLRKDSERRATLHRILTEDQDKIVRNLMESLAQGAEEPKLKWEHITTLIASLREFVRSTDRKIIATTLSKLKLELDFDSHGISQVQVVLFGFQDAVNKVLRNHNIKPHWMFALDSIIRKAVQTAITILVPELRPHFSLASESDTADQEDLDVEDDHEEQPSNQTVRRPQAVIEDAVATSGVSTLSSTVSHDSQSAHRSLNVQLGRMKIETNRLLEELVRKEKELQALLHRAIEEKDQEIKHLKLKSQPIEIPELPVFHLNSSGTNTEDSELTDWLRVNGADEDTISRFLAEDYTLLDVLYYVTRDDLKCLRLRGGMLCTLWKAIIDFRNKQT
In words: Inhibition of human recombinant MAP3K5 at 500 nM in presence of ATP by radiometric assay relative to control.

Proto-oncogene tyrosine-protein kinase ROS (Homo sapiens), sequence (P08922 whole entry): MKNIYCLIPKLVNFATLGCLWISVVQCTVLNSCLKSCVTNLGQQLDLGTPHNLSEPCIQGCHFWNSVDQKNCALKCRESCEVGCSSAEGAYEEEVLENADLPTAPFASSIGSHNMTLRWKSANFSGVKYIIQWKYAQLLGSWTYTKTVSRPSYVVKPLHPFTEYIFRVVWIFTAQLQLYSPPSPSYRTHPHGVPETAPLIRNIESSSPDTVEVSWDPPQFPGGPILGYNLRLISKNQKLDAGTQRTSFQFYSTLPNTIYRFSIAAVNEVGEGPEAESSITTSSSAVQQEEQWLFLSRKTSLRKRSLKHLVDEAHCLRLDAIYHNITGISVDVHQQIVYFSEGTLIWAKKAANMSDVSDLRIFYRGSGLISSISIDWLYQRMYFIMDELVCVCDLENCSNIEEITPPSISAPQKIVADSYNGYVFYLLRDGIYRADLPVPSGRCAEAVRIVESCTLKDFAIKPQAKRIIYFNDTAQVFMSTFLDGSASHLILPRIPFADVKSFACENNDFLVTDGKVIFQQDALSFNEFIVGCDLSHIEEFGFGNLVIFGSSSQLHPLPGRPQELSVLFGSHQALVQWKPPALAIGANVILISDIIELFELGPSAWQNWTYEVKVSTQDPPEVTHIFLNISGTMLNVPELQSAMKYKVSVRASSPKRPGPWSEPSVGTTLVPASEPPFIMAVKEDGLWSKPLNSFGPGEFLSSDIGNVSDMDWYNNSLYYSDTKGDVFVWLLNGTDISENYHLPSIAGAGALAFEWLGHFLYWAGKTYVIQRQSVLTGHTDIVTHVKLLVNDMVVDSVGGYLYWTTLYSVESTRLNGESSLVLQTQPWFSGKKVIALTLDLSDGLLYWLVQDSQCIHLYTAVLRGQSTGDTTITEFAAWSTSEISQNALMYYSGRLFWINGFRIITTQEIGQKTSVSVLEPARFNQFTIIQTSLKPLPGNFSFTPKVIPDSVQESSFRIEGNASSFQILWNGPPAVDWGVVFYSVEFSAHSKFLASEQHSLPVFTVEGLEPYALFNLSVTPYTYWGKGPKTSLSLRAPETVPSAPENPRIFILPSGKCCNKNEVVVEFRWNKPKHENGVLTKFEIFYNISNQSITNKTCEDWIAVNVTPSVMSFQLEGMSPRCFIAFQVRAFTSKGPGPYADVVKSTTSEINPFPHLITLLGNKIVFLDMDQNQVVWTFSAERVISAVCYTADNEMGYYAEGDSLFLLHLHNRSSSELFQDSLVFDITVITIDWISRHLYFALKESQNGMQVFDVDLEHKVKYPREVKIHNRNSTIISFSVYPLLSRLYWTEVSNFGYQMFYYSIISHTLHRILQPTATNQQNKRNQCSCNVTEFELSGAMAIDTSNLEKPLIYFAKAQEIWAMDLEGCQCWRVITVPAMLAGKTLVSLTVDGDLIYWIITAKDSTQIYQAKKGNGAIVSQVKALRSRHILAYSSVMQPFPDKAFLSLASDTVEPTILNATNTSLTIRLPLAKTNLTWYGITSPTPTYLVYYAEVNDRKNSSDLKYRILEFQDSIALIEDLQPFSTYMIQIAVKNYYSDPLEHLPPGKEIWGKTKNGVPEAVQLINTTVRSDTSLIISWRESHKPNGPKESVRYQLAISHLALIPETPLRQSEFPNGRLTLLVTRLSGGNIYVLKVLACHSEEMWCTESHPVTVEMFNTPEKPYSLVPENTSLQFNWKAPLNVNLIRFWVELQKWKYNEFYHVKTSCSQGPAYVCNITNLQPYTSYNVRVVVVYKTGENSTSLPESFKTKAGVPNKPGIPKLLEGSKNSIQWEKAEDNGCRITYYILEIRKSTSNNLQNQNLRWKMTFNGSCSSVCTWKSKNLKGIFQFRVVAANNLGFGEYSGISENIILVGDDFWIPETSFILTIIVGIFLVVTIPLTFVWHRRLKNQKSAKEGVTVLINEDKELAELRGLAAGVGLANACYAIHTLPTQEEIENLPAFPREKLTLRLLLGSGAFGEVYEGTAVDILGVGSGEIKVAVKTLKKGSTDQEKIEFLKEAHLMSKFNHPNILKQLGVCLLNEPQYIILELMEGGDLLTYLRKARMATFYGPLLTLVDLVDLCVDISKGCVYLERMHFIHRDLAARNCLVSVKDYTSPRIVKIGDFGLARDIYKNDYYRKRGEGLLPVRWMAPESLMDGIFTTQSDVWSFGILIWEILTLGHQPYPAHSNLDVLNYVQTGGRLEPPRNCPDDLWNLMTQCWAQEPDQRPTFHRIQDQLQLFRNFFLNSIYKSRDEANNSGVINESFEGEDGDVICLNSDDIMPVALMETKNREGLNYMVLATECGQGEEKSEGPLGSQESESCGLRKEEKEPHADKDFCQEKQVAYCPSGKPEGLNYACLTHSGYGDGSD
Protein-tyrosine kinase 2-beta (Homo sapiens), sequence (Q14289 whole entry, looked up): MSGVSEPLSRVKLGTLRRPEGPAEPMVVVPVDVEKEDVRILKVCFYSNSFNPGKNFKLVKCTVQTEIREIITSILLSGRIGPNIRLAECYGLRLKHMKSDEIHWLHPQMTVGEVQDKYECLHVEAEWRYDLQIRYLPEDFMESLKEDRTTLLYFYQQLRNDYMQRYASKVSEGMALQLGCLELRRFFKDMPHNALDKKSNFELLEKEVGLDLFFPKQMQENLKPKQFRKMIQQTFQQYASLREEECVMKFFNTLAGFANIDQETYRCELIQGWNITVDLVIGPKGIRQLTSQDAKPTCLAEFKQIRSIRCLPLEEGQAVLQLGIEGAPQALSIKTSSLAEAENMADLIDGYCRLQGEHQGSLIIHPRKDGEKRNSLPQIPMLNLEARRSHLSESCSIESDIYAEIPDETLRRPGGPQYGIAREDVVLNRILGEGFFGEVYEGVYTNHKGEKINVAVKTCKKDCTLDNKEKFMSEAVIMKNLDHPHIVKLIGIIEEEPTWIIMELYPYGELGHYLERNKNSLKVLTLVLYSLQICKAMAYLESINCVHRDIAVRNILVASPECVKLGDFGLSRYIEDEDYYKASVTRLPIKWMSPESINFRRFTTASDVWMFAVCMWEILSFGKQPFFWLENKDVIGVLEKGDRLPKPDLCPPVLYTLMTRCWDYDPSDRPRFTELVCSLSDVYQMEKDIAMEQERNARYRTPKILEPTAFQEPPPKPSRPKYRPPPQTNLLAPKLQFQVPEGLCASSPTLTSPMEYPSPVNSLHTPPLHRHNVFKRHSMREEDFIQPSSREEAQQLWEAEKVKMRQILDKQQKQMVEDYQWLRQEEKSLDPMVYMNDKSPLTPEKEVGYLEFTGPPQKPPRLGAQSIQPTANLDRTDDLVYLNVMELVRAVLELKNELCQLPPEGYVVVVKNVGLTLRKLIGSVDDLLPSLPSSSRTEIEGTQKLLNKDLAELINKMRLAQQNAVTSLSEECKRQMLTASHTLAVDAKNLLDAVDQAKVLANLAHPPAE
MAP kinase-interacting serine/threonine-protein kinase 2, sequence (Q9HBH9 whole entry, looked up): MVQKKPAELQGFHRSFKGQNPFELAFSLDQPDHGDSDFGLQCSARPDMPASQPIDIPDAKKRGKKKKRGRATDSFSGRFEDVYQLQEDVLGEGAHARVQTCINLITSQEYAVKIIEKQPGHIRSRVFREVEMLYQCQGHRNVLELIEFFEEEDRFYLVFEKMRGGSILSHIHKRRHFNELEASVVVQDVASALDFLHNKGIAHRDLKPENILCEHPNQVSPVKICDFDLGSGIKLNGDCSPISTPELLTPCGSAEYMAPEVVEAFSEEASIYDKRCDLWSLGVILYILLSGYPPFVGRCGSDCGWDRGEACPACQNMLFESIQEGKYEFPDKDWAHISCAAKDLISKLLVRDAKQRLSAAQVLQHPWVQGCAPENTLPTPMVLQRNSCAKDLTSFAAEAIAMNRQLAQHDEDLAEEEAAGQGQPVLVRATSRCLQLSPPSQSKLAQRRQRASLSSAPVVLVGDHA
Homeodomain-interacting protein kinase 2 (Homo sapiens), sequence (Q9H2X6 whole entry, looked up): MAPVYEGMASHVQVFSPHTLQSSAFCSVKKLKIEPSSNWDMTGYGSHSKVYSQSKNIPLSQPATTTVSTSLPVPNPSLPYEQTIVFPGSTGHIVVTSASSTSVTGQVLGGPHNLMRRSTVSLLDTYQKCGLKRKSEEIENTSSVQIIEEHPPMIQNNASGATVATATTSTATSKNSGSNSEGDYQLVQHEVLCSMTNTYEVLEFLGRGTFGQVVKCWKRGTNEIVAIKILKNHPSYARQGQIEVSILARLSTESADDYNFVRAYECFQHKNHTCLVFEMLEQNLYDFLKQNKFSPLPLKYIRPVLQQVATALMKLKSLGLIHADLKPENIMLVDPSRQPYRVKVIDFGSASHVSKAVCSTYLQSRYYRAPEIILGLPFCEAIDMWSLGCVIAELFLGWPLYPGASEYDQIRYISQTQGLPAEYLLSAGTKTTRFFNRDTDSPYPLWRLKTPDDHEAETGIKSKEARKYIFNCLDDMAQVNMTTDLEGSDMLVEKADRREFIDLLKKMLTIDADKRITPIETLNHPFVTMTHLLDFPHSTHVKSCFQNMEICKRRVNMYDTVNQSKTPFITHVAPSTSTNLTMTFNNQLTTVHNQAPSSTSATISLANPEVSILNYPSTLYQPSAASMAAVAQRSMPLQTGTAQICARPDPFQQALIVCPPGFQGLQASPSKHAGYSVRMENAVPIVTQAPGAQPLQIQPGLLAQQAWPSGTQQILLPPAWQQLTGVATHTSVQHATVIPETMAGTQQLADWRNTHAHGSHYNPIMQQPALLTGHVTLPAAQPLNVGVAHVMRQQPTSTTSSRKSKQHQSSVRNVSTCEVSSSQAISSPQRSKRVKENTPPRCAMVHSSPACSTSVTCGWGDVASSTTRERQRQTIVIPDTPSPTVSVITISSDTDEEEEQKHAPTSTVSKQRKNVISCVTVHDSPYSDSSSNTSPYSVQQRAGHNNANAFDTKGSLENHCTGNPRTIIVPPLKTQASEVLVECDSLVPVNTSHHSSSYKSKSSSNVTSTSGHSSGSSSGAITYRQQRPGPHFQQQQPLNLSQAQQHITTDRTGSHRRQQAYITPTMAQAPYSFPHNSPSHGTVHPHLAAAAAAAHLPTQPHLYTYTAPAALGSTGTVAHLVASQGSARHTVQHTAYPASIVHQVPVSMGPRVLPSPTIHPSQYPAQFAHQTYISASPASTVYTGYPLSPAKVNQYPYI

As for `CC(C)[C@H](NC(=O)c1cc(-c2cnn3cc(-c4ccc(OCCN5CCCCC5)cc4)cnc23)cs1)C(F)(F)F`, the inhibition was 3% in experiment [1]; 0% in experiment [2]; 3% in experiment [4]; 0% in experiment [5]; 0% in experiment [7]. The fold change (FC) was found to be 0 in experiment [3] and 0.3 in experiment [6].

In the case of `O=C(N[C@@H](C1CC1)C(F)(F)F)c1cc(-c2cnn3cc(-c4ccc(F)cc4)cnc23)cs1`, the fold change (FC) in experiment [8] is 0.

On to `CNC(=O)c1ccccc1Oc1nc(Nc2cc(OC)c(OC)c(OC)c2)ncc1Br`, for which the values for the inhibition in [9] and in experiment [11] were 71% and 0%, respectively. The fold change (FC) in [10] was determined as 0.

Values taken from ChEMBL document CHEMBL5653631, “A Potent and Selective ULK1 Inhibitor Suppresses Autophagy and Sensitizes Cancer Cells to Nutrient Stress” (iScience, 2018).
